In the Kinase Knowledgebase extract (Sharma et al. 2016):

These compounds were tested against EGFR (human) (UniProt P00533). Conditions: A431.
Sequence of EGFR (human) (P00533 whole entry, looked up): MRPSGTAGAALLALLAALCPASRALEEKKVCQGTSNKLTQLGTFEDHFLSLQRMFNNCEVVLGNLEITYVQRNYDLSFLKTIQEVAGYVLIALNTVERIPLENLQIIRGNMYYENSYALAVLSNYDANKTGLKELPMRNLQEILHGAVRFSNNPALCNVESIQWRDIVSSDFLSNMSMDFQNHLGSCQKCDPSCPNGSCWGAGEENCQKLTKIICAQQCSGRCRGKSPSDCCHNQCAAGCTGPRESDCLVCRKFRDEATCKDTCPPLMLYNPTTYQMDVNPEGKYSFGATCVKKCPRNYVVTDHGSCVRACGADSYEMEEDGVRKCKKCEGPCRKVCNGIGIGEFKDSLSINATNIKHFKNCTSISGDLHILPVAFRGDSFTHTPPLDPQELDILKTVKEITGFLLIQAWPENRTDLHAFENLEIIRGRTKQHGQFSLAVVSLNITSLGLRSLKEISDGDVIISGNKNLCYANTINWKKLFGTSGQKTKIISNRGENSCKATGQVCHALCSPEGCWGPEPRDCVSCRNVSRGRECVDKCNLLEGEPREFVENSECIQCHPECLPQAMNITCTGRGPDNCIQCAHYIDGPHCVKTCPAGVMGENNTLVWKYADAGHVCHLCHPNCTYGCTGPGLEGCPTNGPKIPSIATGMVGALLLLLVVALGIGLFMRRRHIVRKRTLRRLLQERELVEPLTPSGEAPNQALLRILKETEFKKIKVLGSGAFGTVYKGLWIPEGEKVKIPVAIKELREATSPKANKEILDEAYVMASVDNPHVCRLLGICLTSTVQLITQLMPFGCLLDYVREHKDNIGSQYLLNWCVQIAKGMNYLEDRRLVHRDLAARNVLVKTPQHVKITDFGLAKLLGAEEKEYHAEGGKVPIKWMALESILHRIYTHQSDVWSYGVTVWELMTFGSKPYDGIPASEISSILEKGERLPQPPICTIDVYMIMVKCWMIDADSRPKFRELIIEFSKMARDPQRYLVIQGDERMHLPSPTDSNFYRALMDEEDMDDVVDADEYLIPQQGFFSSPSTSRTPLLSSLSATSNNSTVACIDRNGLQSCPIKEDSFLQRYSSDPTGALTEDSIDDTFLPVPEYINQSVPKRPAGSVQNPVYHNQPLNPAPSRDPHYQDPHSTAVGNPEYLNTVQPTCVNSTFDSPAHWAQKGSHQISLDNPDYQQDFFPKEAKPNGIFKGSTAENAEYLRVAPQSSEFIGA

| Compound | IC50 |
| --- | --- |
| CC(C)c1cc(/C=C(\C#N)C(N)=O)cc(C(C)C)c1O | 1100 nM |
| CCOc1cc(/C=C(\C#N)C(N)=O)cc(CSc2c(F)c(F)c(F)c(F)c2F)c1O | 3000 nM |
| CC(C)(C)c1cc(/C=C(\C#N)C(N)=O)cc(C(C)(C)C)c1O | 46000 nM |
| CCOc1cc(/C=C(\C#N)C(N)=O)cc(CSc2cccc(OC)c2)c1O | 4000 nM |
| CC(C)c1cc(CC(C#N)C(N)=O)cc(C(C)C)c1O (stereo unspecified) | 9800 nM |

More lines, now with the values ahead:

| IC50 | Compound |
| --- | --- |
| 370 nM | N#C/C(=C\c1cc(-c2ccccc2)c(O)c(-c2ccccc2)c1)C(N)=O |
| 2800 nM | CCOc1cc(/C=C(\C#N)C(N)=O)cc(CSc2ccc(O)cc2)c1O |
| 530 nM | COc1cc(/C=C(\C#N)C(N)=O)cc(CSc2ccccc2)c1O |
| 2200 nM | CCOc1cc(/C=C(\C#N)C(N)=O)cc(CSc2ccc(C)cc2)c1O |
| 600 nM | N#C/C(=C\c1cc(Cc2ccccc2)c(O)c(Cc2ccccc2)c1)C(N)=O |
| 750 nM | N#C/C(=C\c1cc(CSc2ccccc2)c(O)c(OCc2ccccc2)c1)C(N)=O |
| 370 nM | CCOc1cc(/C=C(\C#N)C(N)=O)cc(CSc2ccccc2)c1O |

Same assay, conditions: A431; concentration not given here

| Compound | inhibition |
| --- | --- |
| CCOc1cc(/C=C(\C#N)C(N)=O)cc(CSc2ccc(C(C)(C)C)cc2)c1O | 0% |
| CCOc1cc(/C=C(\C#N)C(N)=O)cc(CSc2ccc([N+](=O)[O-])cc2)c1O | 0% |
| CCOc1cc(/C=C(\C#N)C(N)=O)cc(CSc2c(F)c(F)c(F)c(F)c2F)c1O | 41% |
| CCOc1cc(/C=C(\C#N)C(N)=O)cc(CSc2cccc(Cl)c2)c1O | 0% |
| CCOc1cc(/C=C(\C#N)C(N)=O)cc(CSc2cccc(OC)c2)c1O | 17% |
| CCOc1cc(/C=C(\C#N)C(N)=O)cc(CSc2ccc(Cl)c(Cl)c2)c1O | 0% |

Results, then the compound that gave them:

| inhibition | Compound |
| --- | --- |
| 30% | CCOc1cc(/C=C(\C#N)C(N)=O)cc(CSc2ccc(O)cc2)c1O |
| 47% | CCOc1cc(/C=C(\C#N)C(N)=O)cc(CSc2ccc(C)cc2)c1O |
| 0% | CCOc1cc(/C=C(\C#N)C(N)=O)cc(CSc2ccc(Br)cc2)c1O |
| 24% | CCOc1cc(/C=C(\C#N)C(N)=O)cc(CSc2ccccc2)c1OC(C)=O |
| 20% | CCOc1cc(/C=C(\C#N)C(N)=O)cc(CSc2ccccc2)c1OC(=O)c1ccccc1 |
| 18% | CCOc1cc(/C=C(\C#N)C(N)=O)cc(COc2ccccc2)c1O |
| 0% | CCOc1cc(/C=C(\C#N)C(N)=O)cc(CSc2ccccc2OC)c1O |
| 18% | CCOc1cc(/C=C(\C#N)C(N)=O)cc(CSc2ccccc2)c1OC |
